Laboratory results as given in patent US9868758B2, “Betulinic proline imidazole derivatives as HIV inhibitors” (HETERO LABS LIMITED, priority 2014, dated 2018).
pIC50: −log10 of the molar value.

Legend:
Cyto-toxicity, MTT assay = format: cell-based; settings: read-out: Cytotoxicity % viability
Procedure: On day 1 calculate the number of cells required for the assay and seed 3×10^4 cells in 200 μl per well. Weigh the compound and dissolve it in DMSO to get 10 mM stock which is further diluted to 3 mM and 1 mM. The drugs from these stocks were added to plate to get final concentration of 100 μM, 30 μM and 10 μM. […] Incubate for 4 days in 5% CO2 incubator at 37° C. On day 4, 100 μl of medium was removed from each well without disturbing the cells. Add 10 μl of MTT reagent and incubate for 4 hours at 5% CO2 incubator at 37° C. for formation of crystals. Add 200 μl of 0.1N acidic isopropanol to dissolve the crystals and read the plate at 590 nm.

[1] = system: HIV-1 strains, for e.g., 92HT599; test: Antiviral activity: p24 estimation in HIV-1 infected MT-2 cells; format: cell-based; settings: Human immunodeficiency virus 1, MT2, MT-2 cells; for inhibition at 0.01 µM / inhibition at 0.1 µM / inhibition at 1 µM: p24, ~96 hours; for pIC50: p24, read-out: Antiviral activity IC50
Procedure: MT-2 cells were infected with required number of TCID50's of HIV-1 strains, for e.g., 92HT599. The infected cells were plated at the concentration of 30,000 cells per well in a 96 well plate. Test compound was added to the 96 well plate with the final concentration of DMSO (vehicle—not more than 1%). The plates are then incubated in a CO2 incubator for ˜96 hours (˜4 days) for viral infection. At the end of incubation period an aliquot from each well was taken for p24 estimation. The quantitation of p24 is an estimated index for antiviral activity of the compound. Percent inhibition was calculated with reference to control values (vehicle controls).
p-24 estimation was carried out using Advance biosciences kit as per the procedure detailed by supplier.

[2] = Single dose oral pharmacokinetic study; set-up: species or system mice; settings: mouse, in vivo, po, 30 mg/kg
Procedure: The test item was administered through oral route to animals (rat/mice) at 30 mg/kg dose in a suitable vehicle at 10 ml/kg dose volume. Blood samples (˜50 uL at each time point) were collected from retro-orbital plexus using K3 EDTA as anticoagulant in eppendorf tubes at defined time intervals under light ether anesthesia. The samples were centrifuged at 3500×g to separate plasma and stored at −80° C. until analysis.
Sample analysis: Test samples were analyzed using LC-MS-MS after developing fit-for-purpose method for each of test compound.

Question: Which results are given for `C=C(C)[C@@H]1CC[C@]2(C(=O)N3C[C@H](OCCOC)C[C@H]3c3nc(-c4ccccc4)cn3CCC(C)C)CC[C@]3(C)[C@H](CC[C@@H]4[C@@]5(C)CC[C@H](OC(=O)[C@H]6C[C@@H](C(=O)O)C6(C)C)C(C)(C)[C@@H]5CC[C@]43C)[C@@H]12` [Compound 26, (1R,3S)-3-((((1R,3aS,5aR,5bR,7aR,9S,11aR,11bR,13aR,13bR)-3a-((2S,4R)-2-(1-isopentyl-4-phenyl-1H-imidazol-2-yl)-4-(2-methoxyethoxy)pyrrolidine-1-carbonyl)-5a,5b,8,8,11a-pentamethyl-1-(prop-1-en-2-yl)icosahydro-1H-cyclopenta[a]chrysen-9-yl)oxy)carbonyl)-2,2-dimethylcyclobutane-1-carboxylic acid]?
Answer: viability at 4 days, 10 µM (Cyto-toxicity, MTT assay; 10 μM): 77%; viability at 4 days, 30 µM (Cyto-toxicity, MTT assay; 30 μM): 54%; viability at 4 days, 100 µM (Cyto-toxicity, MTT assay; 100 μM): 9%; inhibition at 0.01 µM [1]: 0%; inhibition at 0.1 µM [1]: 15%; inhibition at 1 µM [1]: 99%

Question: With `C=C(C)[C@@H]1CC[C@]2(C(=O)N3C[C@H](OCCOC)C[C@H]3c3nc(-c4ccccc4)cn3CCN3CCCC3)CC[C@]3(C)[C@H](CC[C@@H]4[C@@]5(C)CC[C@H](OC(=O)[C@H]6C[C@@H](C(=O)O)C6(C)C)C(C)(C)[C@@H]5CC[C@]43C)[C@@H]12` [Compound 27, (1R,3S)-3-((((1R,3aS,5aR,5bR,7aR,9S,11aR,11bR,13aR,13bR)-3a-((2S,4R)-4-(2-methoxyethoxy)-2-(4-phenyl-1-(2-(pyrrolidin-1-yl)ethyl)-1H-imidazol-2-yl)pyrrolidine-1-carbonyl)-5a,5b,8,8,11a-pentamethyl-1-(prop-1-en-2-yl)icosahydro-1H-cyclopenta[a]chrysen-9-yl)oxy)carbonyl)-2,2-dimethylcyclobutane-1-carboxylic acid] as the molecule, how does the viability at 4 days, 0.01 µM (Cyto-toxicity, MTT assay) read?
Answer: 60%

Question: What about the viability at 4 days, 0.1 µM (Cyto-toxicity, MTT assay) of the same molecule?
Answer: 24%

Question: And the viability at 4 days, 1 µM (Cyto-toxicity, MTT assay)?
Answer: 8%

Question: What about the AUC(0-t) [2] of the same molecule?
Answer: 355 µg·h/mL

Question: What about the Cmax [2] of the same molecule?
Answer: 10900 ng/mL

Question: And the inhibition at 0.01 µM [1]?
Answer: 0%

Question: And the inhibition at 0.1 µM [1]?
Answer: 100%

Question: And the inhibition at 1 µM [1]?
Answer: 100%

Question: What about the pIC50 [1] of the same molecule?
Answer: 7.47

Question: With `C=C(C)[C@@H]1CC[C@]2(C(=O)N3C[C@H](OCCOC)C[C@H]3c3nc(-c4cccc(F)c4)cn3CCN3CCCC3)CC[C@]3(C)[C@H](CC[C@@H]4[C@@]5(C)CC[C@H](OC(=O)[C@H]6C[C@@H](C(=O)O)C6(C)C)C(C)(C)[C@@H]5CC[C@]43C)[C@@H]12` [Compound 28, (1R,3S)-3-((((1R,3aS,5aR,5bR,7aR,9S,11aR,11bR,13aR,13bR)-3a-((2S,4R)-2-(4-(3-fluorophenyl)-1-(2-(pyrrolidin-1-yl)ethyl)-1H-imidazol-2-yl)-4-(2-methoxyethoxy)pyrrolidine-1-carbonyl)-5a,5b,8,8,11a-pentamethyl-1-(prop-1-en-2-yl)icosahydro-1H-cyclopenta[a]chrysen-9-yl)oxy)carbonyl)-2,2-dimethylcyclobutane-1-carboxylic acid] as the molecule, how does the viability at 4 days, 0.01 µM (Cyto-toxicity, MTT assay) read?
Answer: 65%

Question: What about the viability at 4 days, 0.1 µM (Cyto-toxicity, MTT assay) of the same molecule?
Answer: 19%

Question: And the viability at 4 days, 1 µM (Cyto-toxicity, MTT assay)?
Answer: 6%

Question: What about the AUC(0-t) [2] of the same molecule?
Answer: 293 µg·h/mL

Question: And the Cmax [2]?
Answer: 7300 ng/mL

Question: And the inhibition at 0.01 µM [1]?
Answer: 13%

Question: And the inhibition at 0.1 µM [1]?
Answer: 98%

Question: And the inhibition at 1 µM [1]?
Answer: 100%

Question: And the pIC50 [1]?
Answer: 7.40

Question: For `C=C(C)[C@@H]1CC[C@]2(C(=O)N3CCC[C@H]3c3nc4ccccc4n3CCN(C)C)CC[C@]3(C)[C@H](CC[C@@H]4[C@@]5(C)CC[C@H](OC(=O)[C@H]6C[C@@H](C(=O)O)C6(C)C)C(C)(C)[C@@H]5CC[C@]43C)[C@@H]12` [Compound 29, (1R,3S)-3-((((1R,3aS,5aR,5bR,7aR,9S,11aR,11bR,13aR,13bR)-3a-((S)-2-(1-(2-(dimethylamino)ethyl)-1H-benzo[d]imidazol-2-yl)pyrrolidine-1-carbonyl)-5a,5b,8,8,11a-pentamethyl-1-(prop-1-en-2-yl)icosahydro-1H-cyclopenta[a]chrysen-9-yl)oxy)carbonyl)-2,2-dimethylcyclobutane-1-carboxylic acid], which viability at 4 days, 0.01 µM (Cyto-toxicity, MTT assay) is on record?
Answer: 31%

Question: And the viability at 4 days, 0.1 µM (Cyto-toxicity, MTT assay)?
Answer: 1%

Question: What about the viability at 4 days, 1 µM (Cyto-toxicity, MTT assay) of the same molecule?
Answer: 5%

Question: And the AUC(0-t) [2]?
Answer: 491 µg·h/mL

Question: And the Cmax [2]?
Answer: 14900 ng/mL

Question: And the inhibition at 0.01 µM [1]?
Answer: 0%

Question: And the inhibition at 0.1 µM [1]?
Answer: 100%

Question: What about the inhibition at 1 µM [1] of the same molecule?
Answer: 100%

Question: And the pIC50 [1]?
Answer: 8.01

Question: With `C=C(C)[C@@H]1CC[C@]2(C(=O)N3CCC[C@H]3c3nc4ccccc4n3CCN3CCCC3)CC[C@]3(C)[C@H](CC[C@@H]4[C@@]5(C)CC[C@H](OC(=O)[C@H]6C[C@@H](C(=O)O)C6(C)C)C(C)(C)[C@@H]5CC[C@]43C)[C@@H]12` [Compound 30, (1R,3S)-2,2-dimethyl-3-((((1R,3aS,5aR,5bR,7aR,9S,11aR,11bR,13aR,13bR)-5a,5b,8,8,11a-pentamethyl-1-(prop-1-en-2-yl)-3a-((S)-2-(1-(2-(pyrrolidin-1-yl)ethyl)-1H-benzo[d]imidazol-2-yl)pyrrolidine-1-carbonyl)icosahydro-1H-cyclopenta[a]chrysen-9-yl)oxy)carbonyl)cyclobutane-1-carboxylic acid] as the molecule, how does the viability at 4 days, 0.01 µM (Cyto-toxicity, MTT assay) read?
Answer: 33%

Question: And the viability at 4 days, 0.1 µM (Cyto-toxicity, MTT assay)?
Answer: 3%

Question: What about the viability at 4 days, 1 µM (Cyto-toxicity, MTT assay) of the same molecule?
Answer: 5%

Question: And the AUC(0-t) [2]?
Answer: 546 µg·h/mL

Question: And the Cmax [2]?
Answer: 14800 ng/mL

Question: What about the inhibition at 0.01 µM [1] of the same molecule?
Answer: 71%

Question: And the inhibition at 0.1 µM [1]?
Answer: 100%

Question: What about the inhibition at 1 µM [1] of the same molecule?
Answer: 100%

Question: And the pIC50 [1]?
Answer: 7.99
